According to patent publication US20150087687A1 (priority 2012, published 2015):
Where two headings read alike, the source gives them in different places.

What was measured:
cytochrome P450 1A2 [1] = target: T1, cytochrome P450 1A2 (Homo sapiens, UniProt P05177); experiment: metabolism by cytochrome P450 1A2; assay type: in vitro ADME; details: by oxidation
cytochrome P450 2C19 = cytochrome P450 2C19 (Homo sapiens, UniProt P33261); experiment: metabolism by cytochrome P450 2C19; assay type: in vitro ADME; details: by oxidation
Chain of cytochrome P450 2C19 (P33261 whole entry): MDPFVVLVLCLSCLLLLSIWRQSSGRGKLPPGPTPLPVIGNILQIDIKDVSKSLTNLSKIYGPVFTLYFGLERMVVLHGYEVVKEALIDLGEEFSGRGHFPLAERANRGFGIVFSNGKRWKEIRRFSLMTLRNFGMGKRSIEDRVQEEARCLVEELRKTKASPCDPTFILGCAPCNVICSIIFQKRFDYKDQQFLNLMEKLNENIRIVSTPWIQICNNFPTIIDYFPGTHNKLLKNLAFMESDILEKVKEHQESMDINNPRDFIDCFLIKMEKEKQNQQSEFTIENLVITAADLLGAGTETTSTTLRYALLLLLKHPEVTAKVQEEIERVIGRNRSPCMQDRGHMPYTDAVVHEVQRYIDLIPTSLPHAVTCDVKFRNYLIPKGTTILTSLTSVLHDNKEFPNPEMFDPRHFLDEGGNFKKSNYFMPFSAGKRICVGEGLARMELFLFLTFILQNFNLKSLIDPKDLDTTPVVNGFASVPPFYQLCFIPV

[2] = tested on: uridine glucuronyltransferases (UGT); experiment: metabolism by uridine glucuronyltransferases; assay type: in vitro ADME; details: direct conjugation, without initial cytochrome P450 oxidation; more polar metabolites
cytochrome P450 1A2 [3] = target: T1, cytochrome P450 1A2; experiment: inhibition of cytochrome P450 1A2; assay type: in vitro ADME
cytochrome P450 2C8 = cytochrome P450 2C8 (Homo sapiens, UniProt P10632); experiment: inhibition of cytochrome P450 2C8; assay type: in vitro ADME
Chain of cytochrome P450 2C8 (P10632 whole entry): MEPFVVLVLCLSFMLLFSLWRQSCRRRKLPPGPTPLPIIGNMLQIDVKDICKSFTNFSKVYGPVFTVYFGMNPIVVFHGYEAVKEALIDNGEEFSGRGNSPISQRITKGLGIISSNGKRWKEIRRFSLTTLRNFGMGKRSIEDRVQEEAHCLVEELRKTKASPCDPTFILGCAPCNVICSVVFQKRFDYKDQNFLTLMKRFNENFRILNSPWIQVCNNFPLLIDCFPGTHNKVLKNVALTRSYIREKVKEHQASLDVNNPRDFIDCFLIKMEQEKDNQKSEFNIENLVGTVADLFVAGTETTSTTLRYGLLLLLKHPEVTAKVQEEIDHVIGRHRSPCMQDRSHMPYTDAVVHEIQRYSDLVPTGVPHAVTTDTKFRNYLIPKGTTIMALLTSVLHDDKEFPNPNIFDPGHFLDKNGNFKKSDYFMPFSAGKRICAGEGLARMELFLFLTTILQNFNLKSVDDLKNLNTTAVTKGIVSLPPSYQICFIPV

NEK9 = NEK9 (Homo sapiens, UniProt Q8TD19); experiment: targeting of kinases (FIG. 4): NEK9; assay type: binding
Chain of NEK9 (Q8TD19 whole entry, species assumed): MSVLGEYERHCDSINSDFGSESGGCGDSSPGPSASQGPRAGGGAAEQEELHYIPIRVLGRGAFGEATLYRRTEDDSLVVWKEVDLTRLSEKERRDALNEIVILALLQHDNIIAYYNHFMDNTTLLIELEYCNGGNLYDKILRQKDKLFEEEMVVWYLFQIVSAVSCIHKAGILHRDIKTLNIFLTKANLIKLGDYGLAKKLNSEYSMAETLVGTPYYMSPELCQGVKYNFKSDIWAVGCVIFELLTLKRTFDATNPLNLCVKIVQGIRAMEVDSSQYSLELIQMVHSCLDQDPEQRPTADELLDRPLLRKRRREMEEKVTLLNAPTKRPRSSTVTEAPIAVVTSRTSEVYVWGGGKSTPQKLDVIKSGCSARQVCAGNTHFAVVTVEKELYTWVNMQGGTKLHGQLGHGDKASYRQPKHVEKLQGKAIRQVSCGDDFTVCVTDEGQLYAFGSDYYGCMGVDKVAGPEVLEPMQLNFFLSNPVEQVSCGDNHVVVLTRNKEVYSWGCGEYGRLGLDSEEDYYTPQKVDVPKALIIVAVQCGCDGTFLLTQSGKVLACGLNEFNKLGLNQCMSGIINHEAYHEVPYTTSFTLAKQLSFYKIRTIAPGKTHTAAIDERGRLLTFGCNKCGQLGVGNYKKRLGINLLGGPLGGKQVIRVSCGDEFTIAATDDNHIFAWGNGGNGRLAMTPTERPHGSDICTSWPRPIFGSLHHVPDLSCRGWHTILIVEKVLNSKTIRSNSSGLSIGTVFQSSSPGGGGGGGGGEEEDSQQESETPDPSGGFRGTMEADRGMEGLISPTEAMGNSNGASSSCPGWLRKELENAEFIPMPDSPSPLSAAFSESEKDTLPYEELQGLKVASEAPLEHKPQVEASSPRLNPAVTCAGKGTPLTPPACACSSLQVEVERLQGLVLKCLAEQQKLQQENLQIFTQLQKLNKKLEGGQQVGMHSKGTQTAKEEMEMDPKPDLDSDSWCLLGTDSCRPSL

STK25 = STK25 (Homo sapiens, UniProt O00506); experiment: targeting of kinases (FIG. 4): STK25; assay type: binding
Chain of STK25 (O00506 whole entry, species assumed): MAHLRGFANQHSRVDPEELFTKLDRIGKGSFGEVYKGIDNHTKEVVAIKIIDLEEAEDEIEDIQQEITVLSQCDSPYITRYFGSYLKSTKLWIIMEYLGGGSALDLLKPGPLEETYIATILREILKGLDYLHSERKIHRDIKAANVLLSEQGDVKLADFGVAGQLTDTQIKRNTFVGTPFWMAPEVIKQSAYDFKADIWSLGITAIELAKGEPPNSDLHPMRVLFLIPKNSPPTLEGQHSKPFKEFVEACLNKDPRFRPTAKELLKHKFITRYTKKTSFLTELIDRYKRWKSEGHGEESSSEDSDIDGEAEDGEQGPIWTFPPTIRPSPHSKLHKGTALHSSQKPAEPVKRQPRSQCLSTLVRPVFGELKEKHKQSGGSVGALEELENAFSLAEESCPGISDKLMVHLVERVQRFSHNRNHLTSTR

ERBB3 = ERBB3 (Homo sapiens, UniProt P21860); experiment: targeting of kinases (FIG. 4): ERBB3; assay type: binding
Chain of ERBB3 (P21860 20-1342, species assumed): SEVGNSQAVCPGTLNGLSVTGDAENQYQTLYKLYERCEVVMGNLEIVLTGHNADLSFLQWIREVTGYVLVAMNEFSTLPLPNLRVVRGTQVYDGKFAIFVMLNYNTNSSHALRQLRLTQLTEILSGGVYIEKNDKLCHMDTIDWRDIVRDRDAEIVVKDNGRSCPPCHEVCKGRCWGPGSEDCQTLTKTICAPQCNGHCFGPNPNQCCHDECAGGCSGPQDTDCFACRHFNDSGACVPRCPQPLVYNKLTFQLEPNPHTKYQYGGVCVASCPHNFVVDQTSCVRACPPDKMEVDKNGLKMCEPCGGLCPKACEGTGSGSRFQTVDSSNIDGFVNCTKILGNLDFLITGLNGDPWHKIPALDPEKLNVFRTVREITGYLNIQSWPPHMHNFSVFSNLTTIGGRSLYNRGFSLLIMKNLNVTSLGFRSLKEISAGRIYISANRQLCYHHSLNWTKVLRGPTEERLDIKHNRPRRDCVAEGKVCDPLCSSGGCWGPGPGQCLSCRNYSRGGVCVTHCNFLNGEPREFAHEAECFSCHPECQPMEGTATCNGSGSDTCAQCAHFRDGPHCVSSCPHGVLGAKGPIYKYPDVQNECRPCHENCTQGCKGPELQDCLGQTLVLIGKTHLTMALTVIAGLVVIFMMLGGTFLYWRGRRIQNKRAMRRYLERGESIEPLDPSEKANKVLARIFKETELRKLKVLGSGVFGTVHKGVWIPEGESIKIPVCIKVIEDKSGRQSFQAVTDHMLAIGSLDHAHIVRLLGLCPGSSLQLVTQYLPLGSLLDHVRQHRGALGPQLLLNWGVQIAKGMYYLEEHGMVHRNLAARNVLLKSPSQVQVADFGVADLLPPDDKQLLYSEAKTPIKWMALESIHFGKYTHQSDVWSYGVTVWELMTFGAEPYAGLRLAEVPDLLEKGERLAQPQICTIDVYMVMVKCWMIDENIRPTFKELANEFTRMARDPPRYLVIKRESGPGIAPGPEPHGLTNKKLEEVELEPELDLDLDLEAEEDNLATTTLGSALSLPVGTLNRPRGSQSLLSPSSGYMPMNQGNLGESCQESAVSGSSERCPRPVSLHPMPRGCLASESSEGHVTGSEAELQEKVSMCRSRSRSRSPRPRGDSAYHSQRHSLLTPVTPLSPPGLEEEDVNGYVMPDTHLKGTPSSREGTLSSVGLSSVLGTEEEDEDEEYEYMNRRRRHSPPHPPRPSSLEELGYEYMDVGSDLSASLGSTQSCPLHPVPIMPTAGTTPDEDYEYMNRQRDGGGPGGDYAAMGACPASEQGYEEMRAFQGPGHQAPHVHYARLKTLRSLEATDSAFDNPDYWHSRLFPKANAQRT

[4] = tested on: malignant cell lines, particularly AML cell lines; experiment: viability of cancer cell lines (Example 2); assay type: cell-based; details: 0.1-100 μM, 24 or 48 hours, FIG. 1-3
Experimental: Viability at 48 hours is shown by (♦); viability at 24 hours is shown by (▪).

[5] = tested on: cell lines and primary cancer cells; details: cited from earlier work
NB4 = details: AML; cited from earlier work
HL-60 = details: AML; cited from earlier work
U937 = details: AML; cited from earlier work
K562 [6] = details: CML; cited from earlier work
HUVEC [7] = details: cited from earlier work
ECV304 [8] = details: cited from earlier work
primary AML = details: cited from earlier work
[9] = cited from earlier work
murine cancer models = details: mouse, in vivo; cited from earlier work
AML NOD/SCID model = details: cited from earlier work
[10] = tested on: HT-29 colorectal xenografts; details: mouse, in vivo; cited from earlier work
Lewis lung sarcoma = details: mouse, in vivo; cited from earlier work
[11] = tested on: Walker 256 carcino-sarcoma; details: in vivo; cited from earlier work
AML cell lines = details: cited from earlier work
[12] = tested on: HT-29 colorectal cell lines; details: cited from earlier work
primary AML cells = details: cited from earlier work
AML cells = AML cells (DKO insensitive to chemotherapy); cited from earlier work
K562 cells = details: cited from earlier work
mitochondria = details: effects on mitochondria; cited from earlier work
HL-60 myeloid cells = details: cited from earlier work
[13] = tested on: human myeloblastic leukemic cells; details: cited from earlier work
W256 cells = details: cited from earlier work
microtubule assembly = details: cited from earlier work
[14] = target: glycogen synthase kinase-3β (GSK-3β) (Homo sapiens, UniProt P49841); details: concentration at which inhibition is stated; cited from earlier work
Chain of glycogen synthase kinase-3β (GSK-3β) (P49841 whole entry, species assumed): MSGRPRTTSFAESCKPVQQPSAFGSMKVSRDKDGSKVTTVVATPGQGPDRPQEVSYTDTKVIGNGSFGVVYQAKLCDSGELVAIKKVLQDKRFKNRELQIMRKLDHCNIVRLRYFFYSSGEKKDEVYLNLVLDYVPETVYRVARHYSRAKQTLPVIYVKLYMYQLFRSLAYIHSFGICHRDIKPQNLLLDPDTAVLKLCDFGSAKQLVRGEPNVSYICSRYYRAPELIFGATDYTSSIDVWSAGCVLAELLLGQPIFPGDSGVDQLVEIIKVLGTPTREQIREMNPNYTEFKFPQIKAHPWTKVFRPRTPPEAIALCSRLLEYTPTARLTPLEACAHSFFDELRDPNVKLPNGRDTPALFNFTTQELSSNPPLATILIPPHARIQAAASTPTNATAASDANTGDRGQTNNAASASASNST

HL-60 cells = details: cited from earlier work
K562 [15] = details: cited from earlier work
CD11b = details: promoting myeloid differentiation; cited from earlier work
Jurkat cells = details: inducing phosphorylation of c-Myb; cited from earlier work
VEGF = details: antiangiogenic effects; cited from earlier work
VCAM-1 = details: antiangiogenic effects; cited from earlier work
HUVEC [16] = details: antiangiogenic effects; cited from earlier work
ECV304 [17] = details: antiangiogenic effects; cited from earlier work
[18] = cited from earlier work; remark: listed apart in the source
[19] = tested on: hepatic cytochrome P450 (CYP); details: cited from earlier work
[20] = cited from earlier work; remark: listed apart in the source
[21] = rats; cited from earlier work
[22] = cited from earlier work; remark: listed apart in the source
[23] = cited from earlier work; remark: listed apart in the source
[24] = tested on: chronic myelogenous leukemia (CML); details: cited from earlier work
Bcl-2 = details: induces apoptosis; cited from earlier work
[25] = tested on: negative cell cycle regulators p21 and p27; details: induces cell cycle arrest; cited from earlier work
[26] = rat; cited from earlier work

T1 sequence (P05177 whole entry): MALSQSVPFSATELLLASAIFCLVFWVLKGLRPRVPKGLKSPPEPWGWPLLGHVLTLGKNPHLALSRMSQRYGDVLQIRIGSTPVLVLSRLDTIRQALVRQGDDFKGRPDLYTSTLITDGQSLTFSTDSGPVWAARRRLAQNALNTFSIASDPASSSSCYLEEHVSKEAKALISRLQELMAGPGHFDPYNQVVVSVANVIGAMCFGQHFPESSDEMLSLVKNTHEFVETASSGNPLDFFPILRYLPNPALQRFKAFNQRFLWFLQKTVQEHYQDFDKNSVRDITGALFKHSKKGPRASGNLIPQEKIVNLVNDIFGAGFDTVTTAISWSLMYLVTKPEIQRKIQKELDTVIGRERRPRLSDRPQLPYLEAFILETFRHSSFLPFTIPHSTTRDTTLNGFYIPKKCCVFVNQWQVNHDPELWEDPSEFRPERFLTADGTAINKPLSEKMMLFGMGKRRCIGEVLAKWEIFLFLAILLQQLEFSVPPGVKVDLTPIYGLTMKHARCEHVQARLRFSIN

With `CN1C(=O)/C(=C2/C(=O)Nc3ccccc32)c2ccccc21` [meisoindigo, 3-(1,2-dihydro-2-oxo-3H-indol-3-ylidene)-1,3-dihydro-1-methyl-2H-indol-2-one] the “metabolized by cytochrome P450 1A2” value (cytochrome P450 1A2 [1]) was “metabolized”, the “metabolized by cytochrome P450 2C19” value (cytochrome P450 2C19) was “metabolized” and the “metabolized by UGT” value [2] was “metabolized”. For the same compound, the “inhibits cytochrome P450 1A2 at” value (cytochrome P450 1A2 [3]) was “low micromolar concentrations”, the “inhibits cytochrome P450 2C8 at” value (cytochrome P450 2C8) was “low micromolar concentrations” and the “binding with NEK9” value (NEK9) was “strongest binding”. The “binding with STK25” value (STK25) was “significant binding”, the “binding with ERBB3” value (ERBB3) was “significant binding” and the “killing of malignant cell lines” value [4] was “effective in killing”. The IC50 ([5]; cell lines and primary cancer cells) was “high-μM concentration range”, the “active against cell lines and primary cancer cells” value [5] was “active” and the “activity against NB4” value (NB4) was “activity”. For the same compound, the “activity against HL-60” value (HL-60) was “activity”, the “activity against U937” value (U937) was “activity” and the “activity against K562” value (K562 [6]) was “activity”. For the same compound, the “activity against HUVEC” value (HUVEC [7]) was “activity”, the “activity against ECV304” value (ECV304 [8]) was “activity” and the “activity against primary AML” value (primary AML) was “activity”. For the same compound, the water solubility [9] was “water-soluble”, the “efficacy in murine cancer models” value (murine cancer models) was “effective” and the spleen size (AML NOD/SCID model; AML NOD/SCID model) was “dose-dependent spleen size reduction”. For the same compound, the “efficacy in AML NOD/SCID model” value (AML NOD/SCID model; mouse, in vivo) was “effective”, the “efficacy in HT-29 colorectal xenografts” value [10] was “effective” and the “efficacy in Lewis lung sarcoma” value (Lewis lung sarcoma) was “effective”. For the same compound, the “efficacy in Walker 256 carcino-sarcoma” value [11] was “effective”, the “cell cycle specific effect” value (AML cell lines) was “arrest in G(O)/G1” and the “cell cycle specific effect” value [12] was “G2/M arrest”. The Bcl-2 (primary AML cells) was “downregulation”, the p21 (primary AML cells) was “upregulation” and the p27 (primary AML cells) was “upregulation”. The Bak (AML cells) was “upregulation”, the Bax (AML cells) was “upregulation” and the apoptosis mechanism (K562 cells) was “novel caspase-dependent pathway”. The Bax protein expression (mitochondria) was “no change”, the Bcl-2 protein expression (mitochondria) was “no change” and the Bid protein expression (mitochondria) was “no change”. For the same compound, the “cleavage of PARP” value (HL-60 myeloid cells) was “stimulates the cleavage”, the “cleavage of pro-caspase 3” value (HL-60 myeloid cells) was “stimulates the cleavage” and the “cleavage of pro-caspase 8” value (HL-60 myeloid cells) was “stimulates the cleavage”. The “cleavage of pro-caspase 9” value (HL-60 myeloid cells) was “stimulates the cleavage”, the c-myb gene expression [13] was “downregulation” and the differentiation [13] was “promotes differentiation”. The DNA synthesis (W256 cells) was “inhibition”, the RNA synthesis (W256 cells) was “inhibition” and the microtubule assembly (microtubule assembly) was “inhibition”. For the same compound, the “inhibition of GSK-3β at” value [14] was 5 to 50 nM, the c-myc (HL-60 cells) was “decreases” and the β-catenin (HL-60 cells) was “decreases”. For the same compound, the c-myc (K562 [15]) was “not”, the CD11b (CD11b) was “upregulation” and the Ahi-1 (Jurkat cells) was “upregulation”. For the same compound, the VEGF protection (VEGF) was “decreased”, the VCAM-1 (VCAM-1) was “decreased” and the “tubule formulation in HUVEC” value (HUVEC [16]) was “decreased”. The ECV304 apoptosis (ECV304 [17]) was “apoptosis”, the absorption ([18]; in vivo) was “rapidly absorbed” and the distribution ([18]; in vivo) was “widely distributed in the tissues”. For the same compound, the excretion ([18]; renal and biliary routes) was “renal excretion strongly predominating”, the “sex differences in metabolism” value [19] was “no sex differences” and the metabolic routes ([19]; hepatic cytochrome P450 (CYP)-mediated) was “N-demethylation and mono ring hydroxylation”. For the same compound, the “interspecies differences in metabolism” value ([19]; rats, pigs, and humans) was “no major interspecies differences”, the “human hepatic internal CL (Clint)” value [20] was about 83 mL/mg/kg and the “single dose LD50” value [21] was 3900 mg/kg. For the same compound, the target organs ([22]; dog) was “liver and the gastrointestinal tract”, the well tolerated dose ([22]; dogs, p.o. for 6 months) was 10 mg/kg/day and the “mild nausea and vomiting” value ([23]; clinical trials, single agent or in combination with chemotherapy) was 30%. The “cardiac, hepatic, or renal adverse effects” value ([23]; clinical trials) was “no cardiac, hepatic, or renal adverse effects”, the “course of nausea and vomiting” value ([23]; clinical trials) was “spontaneously disappeared in two weeks” and the tolerability ([23]; several patient populations) was “well tolerated”. The complete hematologic response ([24]; 50-200 mg/d p.o.) was 33 % of patients, the partial hematologic response ([24]; 50-200 mg/d p.o.) was 58 % of patients and the “reduction of leukocyte count (median)” value ([24]; 50-200 mg/d p.o.) was 31 days. For the same compound, the “reduction of splenomegaly (median)” value ([24]; 50-200 mg/d p.o.) was 25 days, the effect with hydroxyurea ([24]; combination with hydroxyurea) was “synergistic effect” and the Bcl-2 (Bcl-2) was “suppression”. The p21 [25] was “upregulation”, the p27 [25] was “upregulation” and the target organs [26] was “liver and the gastrointestinal tract”.
